# Assay results from US9290691B2, “Organic el material-containing solution, method for forming organic el thin film, organic el device comprising organic el thin film, and method for manufacturing organic el display panel” (IDEMITSU KOSAN CO., LTD., priority 2007, dated 2016).
# Experiments:
# Type in all cases: physicochemical
# [1] = Solubility Evaluation 1: anthracene compounds in various solvents, visual check; set-up: key to Solubility in Cyclohexanone / Solubility in Toluene / Solubility in Xylene / Solubility in Tetralin / Solubility in Dodecylbenzene / Solubility in Anisole / Solubility in Dioxane / Solubility in Butyl Acetate / Solubility in Methylethylketone / Solubility in N-methylpyrolidone: A: it was confirmed that the compounds were dissolved in the dropped solvents; C: the compounds were not completely dissolved and undissolved residues remained; conditions: for Solubility in Anisole / Solubility in Butyl Acetate / Solubility in Cyclohexanone / Solubility in Dioxane / Solubility in Dodecylbenzene / Solubility in Methylethylketone / Solubility in N-methylpyrolidone / Solubility in Tetralin / Solubility in Toluene / Solubility in Xylene: 30 mg compound, 1 g solvent, visual check
# Experimental: (§1) 30 mg of each of anthracene compounds 1 to 14 represented by the following formulae was put into a sample bottle, and 1 g of each of various solvents was dropped into the bottle with agitation. By visual check, a case where it was confirmed that the compounds were dissolved in the dropped solvents is marked as A and a case where the compounds were not completely dissolved and undissolved residues remained is marked as C.
# [2] = Solvent solubility of naphthacene host compound; conditions: aromatic substituent bonded to naphthacene skeleton in para position; solvent not stated
# Excerpt: For instance, when an aromatic group as a substituent is bonded to a naphthacene skeleton in para position, the solubility is lowered.
# [3] = Solubility Evaluation 2: naphthacene compounds in various solvents, visual check; set-up: key: A: it was confirmed that the compounds were dissolved in the dropped solvents; C: the compounds were not completely dissolved and undissolved residues remained; conditions: 30 mg compound, 1 g solvent
# Experimental: as §1
# Next, naphthacene compounds 15 and 16 were used in place of the anthracene compounds, and the solubility was evaluated in the same manner as the above. Same as in Solubility Evaluation 1, by visual check, a case where it was confirmed that the compounds were dissolved in the dropped solvents is marked as A and a case where the compounds were not completely dissolved and undissolved residues remained is marked as C. Moreover, a case where precipitation was observed after several hours of dissolution is marked as B. Result of solubility evaluation will be shown in Table 3 below.
Solubility in Anisole [1],Solubility in Butyl Acetate [1],Solubility in Cyclohexanone [1],Solubility in Dioxane [1],Solubility in Dodecylbenzene [1],Solubility in Methylethylketone [1],Solubility in N-methylpyrolidone [1],Solubility in Tetralin [1],Solubility in Toluene [1],Solubility in Xylene [1],solubility [2],Solubility in Cycloheptanone [3],Solubility in Cyclohexanone [3],Solubility in N-methylpyrolidone [3],Solubility in Toluene [3],Solubility in Xylene [3],SMILES,dissolution in cyclohexanone (in words) ([1]; cyclohexanone),dissolution in toluene (in words) ([1]; toluene)
C,C,A,A,C,C,A,C,A,A,,,,,,,c1ccc(-c2ccc3cc(-c4cccc(-c5c6ccccc6c(-c6ccc(-c7cccc8ccccc78)cc6)c6ccccc56)c4)ccc3c2)cc1 [Compound 3],,
C,C,A,C,C,C,A,C,C,C,,,,,,,c1cc(-c2ccc3ccccc3c2)cc(-c2c3ccccc3c(-c3cccc4ccccc34)c3ccccc23)c1 [Compound 6],,
C,C,A,A,C,C,A,C,A,A,,,,,,,c1ccc2cc(-c3ccc(-c4c5ccccc5c(-c5ccc(-c6cccc7ccccc67)cc5)c5ccccc45)cc3)ccc2c1 [Compound 7],,
C,C,A,C,C,C,A,C,C,C,,,,,,,c1ccc2cc(-c3ccc(-c4ccc(-c5c6ccccc6c(-c6ccc7ccccc7c6)c6ccccc56)cc4)c4ccccc34)ccc2c1 [Compound 9],,
C,C,A,A,C,C,A,C,A,A,,,,,,,c1ccc2cc(-c3c4ccccc4c(-c4ccc(-c5cccc6ccccc56)cc4)c4ccccc34)ccc2c1 [Compound 1],,

# Continued, molecule first:
SMILES,Solubility in Anisole [1],Solubility in Butyl Acetate [1],Solubility in Cyclohexanone [1],Solubility in Dioxane [1],Solubility in Dodecylbenzene [1],Solubility in Methylethylketone [1],Solubility in N-methylpyrolidone [1],Solubility in Tetralin [1],Solubility in Toluene [1],Solubility in Xylene [1],solubility [2],Solubility in Cycloheptanone [3],Solubility in Cyclohexanone [3],Solubility in N-methylpyrolidone [3],Solubility in Toluene [3],Solubility in Xylene [3],dissolution in cyclohexanone (in words) ([1]; cyclohexanone),dissolution in toluene (in words) ([1]; toluene)
c1ccc(-c2cc(-c3ccc4ccccc4c3)cc(-c3c4ccccc4c(-c4ccc5ccccc5c4)c4ccccc34)c2)cc1 [Compound 2],C,C,A,A,C,C,A,C,A,A,,,,,,,,
c1ccc(-c2ccc(-c3c4ccccc4c(-c4ccc(-c5ccccc5)cc4)c4ccccc34)cc2)cc1 [Compound 13],C,C,C,C,C,C,C,C,C,C,,,,,,,,
c1ccc(-c2ccc(-c3c4ccccc4c(-c4ccc(-c5ccccc5)cc4-c4ccccc4)c4cc5ccccc5cc34)c(-c3ccccc3)c2)cc1,,,,,,,,,,,≤ 0.1 mass %,,,,,,,
c1cc(-c2ccc3ccccc3c2)cc(-c2c3ccccc3c(-c3ccc4cc(-c5ccc6ccccc6c5)ccc4c3)c3ccccc23)c1 [Compound 4],C,C,A,C,C,C,A,C,C,C,,,,,,,dissolved,not dissolved
c1ccc2cc(-c3c4ccccc4c(-c4ccc5ccccc5c4)c4ccccc34)ccc2c1 [Compound 11],C,C,C,C,C,C,C,C,C,C,,,,,,,,
c1cc(-c2ccc3ccccc3c2)cc(-c2c3ccccc3c(-c3ccc4ccccc4c3)c3ccccc23)c1 [Compound 10],C,C,A,C,C,C,A,C,A,A,,,,,,,,
c1ccc(-c2ccc3cc(-c4cccc(-c5c6ccccc6c(-c6ccc7ccccc7c6)c6ccccc56)c4)ccc3c2)cc1 [Compound 8],C,C,A,C,C,C,A,C,C,C,,,,,,,,
c1ccc(-c2ccc3ccc(-c4c5ccccc5c(-c5cccc(-c6ccc7ccccc7c6)c5)c5ccccc45)cc3c2)cc1 [Compound 5],C,C,A,C,C,C,A,C,C,C,,,,,,,,
c1ccc(-c2c3ccccc3c(-c3cccc(-c4cccc(-c5c6ccccc6c(-c6ccccc6)c6ccccc56)c4)c3)c3ccccc23)cc1 [Compound 12],C,C,C,C,C,C,C,C,C,C,,,,,,,,
c1ccc(-c2ccc(-c3ccccc3-c3c4ccccc4c(-c4c5ccccc5c(-c5ccccc5-c5ccc(-c6ccccc6)cc5)c5ccccc45)c4ccccc34)cc2)cc1 [Compound 14],C,C,A,A,C,C,A,C,A,C,,,,,,,,
c1ccc(-c2cc(-c3ccccc3)c(-c3c4ccccc4c(-c4ccccc4)c4cc5ccccc5cc34)c(-c3ccccc3)c2)cc1 [Compound 16],,,,,,,,,,,,A,A,A,C,C,,
